Test results reported in patent US20230365563A1, “QUINAZOLINE COMPOUND AND APPLICATION THEREOF” (SHANGHAI PHARMACEUTICALS HOLDING CO., LTD., priority 2020, published 2023).
Counter-ions that a name gives are not always drawn.

How the values were obtained:
KRAS_WT and SOS1 = biological target: T1, KRAS_WT and SOS1 (Homo sapiens, UniProt P01116); assay: Inhibition of KRAS_WT/SOS1 binding (Cisbio binding kit, 665/615 ratio), Effect Embodiment C; conditions: read-out: GTP-KRAS-WT:SOS1 IC50
T1 construct: purchased
T1 sequence (P01116 1-188 isoform P01116-2): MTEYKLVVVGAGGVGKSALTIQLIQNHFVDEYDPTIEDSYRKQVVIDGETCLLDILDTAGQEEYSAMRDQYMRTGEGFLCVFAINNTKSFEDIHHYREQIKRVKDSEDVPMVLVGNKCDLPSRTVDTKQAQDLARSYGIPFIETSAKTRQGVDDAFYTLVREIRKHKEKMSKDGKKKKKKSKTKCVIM
Method in brief: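 Compounds tested as 3-fold, 11-point dilutions in duplicate at 1% DMSO final against the KRAS_WT/SOS1 binding system. IC50 derived by nonlinear regression fit.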

KRAS-G12D and SOS1 = biological target: T2, KRAS-G12D and SOS1 (Homo sapiens, UniProt P01116, G12D); assay: Inhibition of KRAS-G12D/SOS1 binding (Cisbio binding kit, 665/615 ratio), Effect Embodiment A; conditions: read-out: GTP-KRAS-G12D:SOS1 IC50
T2 construct: purchased
T2 sequence (P01116 1-188 isoform P01116-2 G12D): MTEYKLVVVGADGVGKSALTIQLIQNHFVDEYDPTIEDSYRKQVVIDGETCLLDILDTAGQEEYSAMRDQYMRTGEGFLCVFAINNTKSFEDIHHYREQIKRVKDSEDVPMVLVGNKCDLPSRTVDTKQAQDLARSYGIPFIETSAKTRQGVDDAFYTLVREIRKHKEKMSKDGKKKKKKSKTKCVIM
Method in brief: (§1)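 Compounds are tested over eleven threefold dilution steps in duplicate, with final DMSO at 1%.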

KRAS_G12D and cRAF = biological target: T3, KRAS_G12D and cRAF (Homo sapiens, UniProt P01116, G12D); assay: Inhibition of KRAS_G12D/cRAF binding (Cisbio binding kit, 665/615 ratio), Effect Embodiment B; conditions: read-out: GTP-KRAS-G12D:CRAF IC50
T3 construct: purchased
T3 sequence (P01116 1-188 isoform P01116-2 G12D): as above
Method in brief: as §1

Compound	IC50 (KRAS_WT and SOS1)	IC50 (KRAS-G12D and SOS1)	IC50 (KRAS_G12D and cRAF)
Oc1cc(-c2c(Cl)cc3c(N4CC5CCC(C4)N5)nc(OCCCN4CCNCC4)nc3c2F)c2ccccc2c1 (single isomer, unassigned) [Compound 92, 4-((S or R)-4-((1R,5S)-3,8-diazabicyclo[3.2.1]octan-3-yl)-6-chloro-8-fluoro-2-(3-(piperazin-1-yl)propoxy)quinazolin-7-yl)naphthalen-2-ol dihydrochloride]	4710 nM	37.4 nM	139 nM
CN1CCC[C@H]1COc1nc(N2CC3CCC(C2)N3)c2cc(Cl)c(-c3cc(O)cc4ccccc34)c(F)c2n1 (single isomer, unassigned) [Compound 170, (R or S)-4-(4-((1R,5S)-3,8-diazabicyclo[3.2.1]octan-3-yl)-6-chloro-8-fluoro-2-((S)-1-methylpyrrolidin-2-yl)methoxy)quinazolin-7-yl)naphthalen-2-ol dihydrochloride]	270 nM	12.8 nM	24.4 nM
CO[C@H]1CCN(CCCOc2nc(N3CC4CCC(C3)N4)c3cc(Cl)c(-c4cc(O)cc5ccccc45)c(F)c3n2)[C@H](C)C1 (single isomer, unassigned) [Compound 258, 4-((S or R)-4-((1R,5S)-3,8-diazacyclo[3.2.1]octan-3-yl)-6-chloro-8-fluoro-2-(3-((2R,4S)-4-methoxy-2-methylpiperidin-1-yl)propoxy)quinazolin-7-yl)naphthalen-2-ol diformate]	6130 nM	26.9 nM	219 nM
CC(C)NCCCOc1nc(N2CC3CCC(C2)N3)c2cc(Cl)c(-c3cc(O)cc4ccccc34)c(F)c2n1 (single isomer, unassigned) [Compound 101, 4-((S or R)-4-((1R,5S)-3,8-diazabicyclo[3.2.1]octan-3-yl)-6-chloro-8-fluoro-2-(3-(isopropylamino)propoxy)quinazolin-7-yl)naphthalen-2-ol dihydrochloride]	2470 nM	31.7 nM	182 nM
Oc1cc(-c2c(Cl)cc3c(N4CC5CCC(C4)N5)nc(OCC4(CN5C6CCC5COC6)CC4)nc3c2F)c2ccccc2c1 (single isomer, unassigned) [Compound 119, 4-((7S or R)-2-((1-((3-oxa-8-azabicyclo[3.2.1]octan-8-yl)methyl)cyclopropyl)methoxy)-4-((1R,5S)-3,8-diazabicyclo[3.2.1]octan-3-yl)-6-chloro-8-fluoroquinazolin-7-yl)naphthalen-2-ol formate]	160 nM	14.5 nM	14.4 nM
CNCCCOc1nc(N2CC3CCC(C2)N3)c2cc(Cl)c(-c3cc(O)cc4ccccc34)c(F)c2n1 (single isomer, unassigned) [Compound 93, 4-((S or R)-4-((1R,5S)-3,8-diazabicyclo[3.2.1]octan-3-yl)-6-chloro-8-fluoro-2-(3-(methylamino)propoxy)quinazolin-7-yl)naphthalen-2-ol dihydrochloride]	2030 nM	12.3 nM	82.1 nM
Oc1cc(-c2c(Cl)cc3c(N4CC5CCC(C4)N5)nc(OCCCN4CC5CCC4CO5)nc3c2F)c2ccccc2c1 (single isomer, unassigned) [Compound 187b, (R or S)-4-(2-(3-((1R,4R or 1S,4S)-2-oxa-5-azabicyclo[2.2.2]octan-5-yl)propoxy)-4-((1R,5S)-3,8-diazabicyclo[3.2.1]octan-3-yl)-6-chloro-8-fluoroquinazolin-7-yl)naphthalen-2-ol diformate]	1670 nM	27.7 nM	115 nM
Oc1cc(-c2c(Cl)cc3c(N4CC5CCC(C4)N5)nc(OCCCN4C5CCC4COC5)nc3c2F)c2cc(F)ccc2c1 (single isomer, unassigned) [compound 252]	414 nM	21.7 nM	48 nM
Cn1cnc(Cn2ccc3ccc(CNCc4[nH]c5ccccc5c4[C@H]4NC(=O)c5ccc(O)cc54)cc32)c1 [BI-2852, reference compound]	136 nM	238 nM	2700 nM
C[C@@H](COc1nc(N2CC3CCC(C2)N3)c2cc(Cl)c(-c3cc(O)cc4ccccc34)c(F)c2n1)CN1CCOC2(CC2)C1 (single isomer, unassigned) [Compound 243, 4-((S or R)-4-((1R,5S)-3,8-diazabicyclo[3.2.1]octan-3-yl)-6-chloro-8-fluoro-2-((R)-2-methyl-3-(4-oxa-7-azaspiro[2.5]octan-7-yl)propoxy)quinazolin-7-yl)naphthalen-2-ol formate]	1250 nM	19.2 nM	37.5 nM
Oc1cc(-c2c(Cl)cc3c(N4C[C@H]5CC[C@@H](C4)N5)nc(OCCCN4C[C@H]5C[C@@H]4CO5)nc3c2F)c2ccccc2c1 (single isomer, unassigned) [Compound 169, (R or S)-4-(2-(3-((1R,4R)-2-oxa-5-azabicyclo[2.2.1]heptan-5-yl)propoxy)-4-((1R,5S)-3,8-diazabicyclo[3.2.1]octan-3-yl)-6-chloro-8-fluoroquinazolin-7-yl)naphthalen-2-ol dihydrochloride]	1870 nM	39.2 nM	71.3 nM
CCC(COc1nc(N2CC3CCC(C2)N3)c2cc(Cl)c(-c3cc(O)cc4ccccc34)c(F)c2n1)CN1C2CCC1COC2 (single isomer, unassigned) [Compound 201b, (4S or 4R)-4-(2-((2S or 2R)-2-(3-oxa-8-azabicyclo[3.2.1]octan-8-ylmethyl)butoxy)-4-((1R,5S)-3,8-diazabicyclo[3.2.1]octan-3-yl)-6-chloro-8-fluoroquinazolin-7-yl)naphthalen-2-ol formate]	2180 nM	54.6 nM	45.8 nM
CO[C@H]1C[C@H]2CC[C@@H](C1)N2C[C@@H](C)COc1nc(N2CC3CCC(C2)N3)c2cc(Cl)c(-c3cc(O)cc4ccccc34)c(F)c2n1 (single isomer, unassigned) [Compound 223, 4-((S or R)-4-((1R,5S)-3,8-diazabicyclo[3.2.1]octan-3-yl)-6-chloro-8-fluoro-2-((R)-3-((1R,3R,5S)-3-methoxy-8-azabicyclo[3.2.1]octan-8-yl)-2-methylpropoxy)quinazolin-7-yl)naphthalen-2-ol diformate]	1700 nM	17.5 nM	15.6 nM
Oc1cc(-c2c(Cl)cc3c(N4CC5CCC(C4)N5)nc(OCCCN4C5CC6CC4CC(C5)O6)nc3c2F)c2ccccc2c1 (single isomer, unassigned) [Compound 235, 4-((S or R)-2-(3-((1R,3R,5R,7R)-2-oxa-6-azadamantan-6-yl)propoxy)-4-((1R,5S)-3,8-diazabicyclo[3.2.1]octan-3-yl)-6-chloro-8-fluoroquinazolin-7-yl)naphthalen-2-ol formate]	1770 nM	52.4 nM	149 nM
CCNCCCOc1nc(N2CC3CCC(C2)N3)c2cc(Cl)c(-c3cc(O)cc4ccccc34)c(F)c2n1 (single isomer, unassigned) [Compound 105, dihydrochloride]	3040 nM	22.4 nM	185 nM

Further lines, results first:

IC50 (KRAS_WT and SOS1)	IC50 (KRAS-G12D and SOS1)	IC50 (KRAS_G12D and cRAF)	Compound
27.3 nM	8.77 nM	10.9 nM	C#Cc1c(F)ccc2cccc(-c3c(F)cc4c(N5CC6CCC(C5)N6)nc(OC[C@@]56CCCN5C[C@H](F)C6)nc4c3F)c12 (single isomer, unassigned) [Compound 279a, (S or R)-4-((1R,5S)-3,8-diazacyclo[3.2.1]octyl-3-yl)-7-(8-ethynyl-7-fluoronaphthalen-1-yl)-6,8-difluoro-2-((2R,7aS)-2-fluorotetrahydro-1H-pyrrolidin-7a(5H)-yl)methoxy)quinazoline formate]
761 nM	15.8 nM	19.2 nM	CCc1cccc2cc(O)cc(-c3c(F)cc4c(N5CC6CCC(C5)N6)nc(OCCCN5C[C@@H](C)O[C@@H](C)C5)nc4c3F)c12 (single isomer, unassigned) [Compound 283a, (S or R)-4-(4-((1R,5S)-3,8-diazacyclo[3.2.1]octan-3-yl)-2-(3-((2S,6R)-2,6-dimethylmorpholinylpropoxy)-6,8-difluoroquinazolin-7-yl)-5-ethylnaphthalen-2-oldihydrochloride]
5650 nM	36.1 nM	59.4 nM	Oc1cc(-c2c(Cl)cc3c(N4CC5CCC(C4)N5)nc(OCC(CN4C5CCC4COC5)C4CC4)nc3c2F)c2ccccc2c1 (single isomer, unassigned) [Compound 209a, 4-((7S or 7R))-2-(2(R or S))-3-(3-oxa-8-azabicyclo[3.2.1]octan-8-yl)-2-cyclopropylpropoxy)-4-((1R,5S)-3,8-diazabicyclo[3.2.1]octan-3-yl)-6-chloro-8-fluoroquinazolin-7-yl)naphthalen-2-ol diformate]
4900 nM	50 nM	184 nM	CC1OCCN(CCCOc2nc(N3CC4CCC(C3)N4)c3cc(Cl)c(-c4cc(O)cc5ccccc45)c(F)c3n2)C1C (single isomer, unassigned) [Compound 265d, 4-((R or S)-4-((1R,5S)-3,8-diazabicyclo[3.2.1]octan-3-yl)-6-chloro-2-(3-(2R or 2S, 3R or 3S)-2,3-dimethylmorpholinyl)propoxy)-8-fluoroquinazolin-7-yl)naphthalen-2-ol diformate]
10.3 nM	13.7 nM	7.79 nM	CN(C)C(=O)OCC1CCC2(COc3nc(N4CC5CCC(C4)N5)c4cc(Cl)c(-c5cc(O)cc6ccccc56)c(F)c4n3)CCCN12 (single isomer, unassigned) [Compound 232a]
